Here are results for 1 molecule from patent US20230100559A1, “Compositions and Methods for Treatment of Disease by Manipulation of Serine Metabolism” (The Trustees of Princeton University, priority 2020, published 2023).

“Also recorded” adds a separate entry of the source.

Test [1] relates to NADH production by serine catabolism. In words: In vivo [2,3,3-2H]serine infusion, malate labeling. To be noted: WT C57BL6/J mice, SHIN2 200 mg/kg ip single injection before 2.5 h tracer infusion. The procedure: Mouse breeding and isotope tracing. Animal studies followed protocols approved by the Princeton University Institutional Animal Care and Use Committee and the Rutgers University Institutional Animal Care and Use Committee. NDUFS4+/− mice were purchased from Jackson Laboratory. The mice were on normal light cycle (7 AM-7 PM). In vivo infusion was performed on 9-week old normal C57BL/6 mice pre-catheterized on the right jugular vein, and 4-week old NDUFS4−/− or NDUFS4+/+ mice pre-catheterized on the jugular vein. Infusion was performed for 2.5 h to achieve isotopic pseudo-steady state. The mouse infusion setup included a tether and swivel system, connecting to the button pre-implanted under the back skin of mice. Mice were fasted from 9:00 am to 2 pm, and infused from 2 pm till 4:30 pm. […]
Calculation of 2H-serine contribution to malate, aspartate, and NADH: For malate and aspartate, the 2H-labeling fraction was measured directly (fractional size of 2H-peak relative to sum of all peaks, after isotope correction as above). For NADH, the 2H-labeling fraction was measured based on the active hydride labeling (x), which was determined from the labeling pattern of NAD+ and NADH by least square fitting in MATLAB of the observed experimental data (after natural isotope correction) to the below vectors (Liu et al., 2016a). […]

A further test deals with NDUFS4−/− mice. The experiment in a line: Treatment of NDUFS4−/− mice (mitochondrial disease model). In kind it is in vivo. Here is the method:
NDUFS4−/− mice were housed with normal mice and gel food was supplied to guarantee sufficient food supply. Mice were grouped as vehicle control group and SHIN2 treatment groups. SHIN2 was dissolved in 20% 2-hydroxypropyl-cyclodextrin solution, and delivered by intraperitoneal (50 μg/g mice) b.i.d. Mice weights were recorded every day. Limb clasps were recorded daily, with mice annotated as having the pathological limb clasping phenotype on the third consecutive day of clasping. 20% weight loss of the peak weight for each mouse is considered as the humane endpoint.
Mouse Model. B6.129S4-Ndufs4+/− mice were purchased from Jackson laboratories. The mice are heterozygous for a protein in mitochondrial complex 1 and have been bred to generate homozygous knockout mouse for the study of mitochondrial deficiency. These mice are a model of mitochondrial disease and knockouts are healthy until approximately 5 weeks age, but develop lethal encephalomyopathy by 7 weeks.
Treatment strategy: Mice were grouped as vehicle treatment group and KDG112 treatment group. KDG112 was dissolved in 20% hydroxypropyl cyclodextrin to a final concentration of 5 mg/ml. Mice were dosed B.I.D at 50 mg/kg ip. Mice weight and body temperature are recorded, and body condition score were given according to the chart below.

[2] abbreviates: KDG112 50 mg/kg ip B.I.D, compared to vehicle.

With `Cc1n[nH]c2c1C(c1cc(C#CCCCO)cc(CO)c1)(C(C)C)C(C#N)=C(N)O2` (stereo not drawn) [SHIN2], the “malate labeling from [2,3,3-2H]serine (NADH production by serine catabolism)” value in test [1] is on record as “blocks NADH production by serine catabolism in vivo; also recorded: blocked most malate labeling”. For the same molecule, in the test on NDUFS4−/− mice (setting [2]), the body condition score result was “lower score”, the body temperature entry is “higher body temperature”, the locomotor activity result is on record as “better locomotor activity” and the “symptoms of hind limb clasp” value is reported as “delayed symptoms of hind limb clasp”. Moreover, in the test on NDUFS4−/− mice (SHIN2 50 mg/kg b.i.d. from postnatal day 25±4, versus vehicle, 50 mg/kg), the pathological limb clasping result was “Delayed occurrence of limb clasping; also recorded: delayed pathological clasping behavior”. Also, the survival entry in the test with NDUFS4−/− mice (SHIN2 50 mg/kg b.i.d. versus vehicle, p=0.18, log-rank Test) is reported as “not significantly altering survival”. Moreover, in the test with NDUFS4−/− mice (first pair of pups, KDG112 treated mouse), the “time after day 49 until hind limb clasping symptoms develop” value was found to be 10 days. Also, the “leg control and cage edge test” value in the test with NDUFS4−/− mice (first pair of pups, day 49 (P49), treatment from P29) is “can control its leg normally as wild type, and can walk freely on the edge test”. For the same molecule, the body weight entry with NDUFS4−/− mice (first pair of pups, day 63) is listed as “still maintains its weight”. Moreover, the “day at which symptoms such as hind limb clasping develop” value with NDUFS4−/− mice (second pair of pups, KDG112 treated mouse) came out at 47 days. Also, the behaviour entry in the test with NDUFS4−/− mice (second pair of pups, day 38, treatment from P28) is “behaves normally”.
